The source of these data is ChEMBL document CHEMBL3217490, “An approach to enzyme inhibition employing reversible boronate ester formation” (Medchemcomm, 2011).

The nature of series [1]: Dissociation constant, pKa of the compound. In kind it is physicochemical.
A short description of series [2]: Inhibition of alpha-chymotrypsin (unknown origin). Further details: species or system Homo sapiens.
The nature of series [3]: Inhibition of Escherichia coli beta-lactamase AmpC.
The species entered for series [4] is Homo sapiens. In words: Binding affinity to alpha-chymotrypsin (unknown origin) at 1 mM at pH 5.8 by 11B-NMR analysis in presence of D-fructose.
The species entered for series [5] is Homo sapiens. In words: Binding affinity to alpha-chymotrypsin (unknown origin) at 5 mM by [1H] waterLOGSY NMR analysis in presence of D-fructose.
Series [6] is filed under the species Homo sapiens. Put plainly: Binding affinity to alpha-chymotrypsin (unknown origin) at 5 mM by [1H] waterLOGSY NMR analysis in presence of L-fructose.
The species entered for series [7] is Homo sapiens. In words: Binding affinity to alpha-chymotrypsin (unknown origin) at 1 mM at pH 5.8 by 11B-NMR analysis.
The species entered for series [8] is Homo sapiens. Put plainly: Inhibition of alpha-chymotrypsin (unknown origin) using succinyl-Ala-Ala-Pro-Phe-para-nitroanilide as substrate assessed as residual activity at 25 uM after 10 mins in presence of D-fructose relative to control.
Series [9] is filed under the species Homo sapiens. Put plainly: Inhibition of alpha-chymotrypsin (unknown origin) using succinyl-Ala-Ala-Pro-Phe-para-nitroanilide as substrate assessed as residual activity at 25 uM after 10 mins in presence of D-glucose relative to control.
Series [10] is filed under the species Homo sapiens. Put plainly: Inhibition of alpha-chymotrypsin (unknown origin) using succinyl-Ala-Ala-Pro-Phe-para-nitroanilide as substrate assessed as residual activity at 25 uM after 10 mins in presence of L-glucose relative to control.
For series [11], the species on record is Homo sapiens. In words: Inhibition of alpha-chymotrypsin (unknown origin) using succinyl-Ala-Ala-Pro-Phe-para-nitroanilide as substrate assessed as residual activity at 25 uM after 10 mins in presence of L-fructose relative to control.
The species entered for series [12] is Homo sapiens. Put plainly: Binding affinity to alpha-chymotrypsin (unknown origin) at 1 mM at pH 5.8 by 11B-NMR analysis in presence of L-fructose.
The species entered for series [13] is Homo sapiens. In words: Binding affinity to alpha-chymotrypsin (unknown origin) at 1 mM at pH 5.8 by 11B-NMR analysis in presence of L-sorbose.
The species entered for series [14] is Homo sapiens. Put plainly: Binding affinity to alpha-chymotrypsin (unknown origin) at 1 mM at pH 5.8 by 11B-NMR analysis in presence of D-sorbose.

The structures appear in SMILES notation. Calls of active or inactive are those of the source. The calls are words filed in the database; no cut-off is given here.

In general, pKa refers to the negative logarithm of the acid dissociation constant. Lower therefore signals a group that gives up its proton readily. A word on the IC50: it is the point on the concentration scale where inhibition reaches its midpoint.

As for `OB(O)c1ccc2ccccc2c1`, the pKa in series [1] came out at 8.88.

In series [1], `CCB(O)O` came in with a pKa of 10.

Regarding `OB(O)O` [BORIC ACID], the pKa in series [1] was determined as 10.

Regarding `OB(O)c1cc2ccccc2o1`, the IC50 in [2] turned out to be 14 µM; in series [3], 0.22 µM. This compound also registered a pKa in series [1] of 7.3. Moreover, the result in the series filed under Homo sapiens [4] and in the series listed under Homo sapiens [5] was Active. Moreover, the outcome in the series listed under Homo sapiens [6] was inactive.

As to `OB(O)c1cc2ccccc2s1`, the IC50 in [2] was found to be 5 µM. This compound yielded a pKa in series [1] of 7.44. Moreover, the outcome in the series filed under Homo sapiens [7], in the series filed under Homo sapiens [4], in the series listed under Homo sapiens [12], in the series filed under Homo sapiens [13], in the series filed under Homo sapiens [14] and in the series listed under Homo sapiens [5] was Active. The Activity was 78% in the series filed under Homo sapiens [8], 97% in the series filed under Homo sapiens [9], 94% in the series filed under Homo sapiens [10] and 97% in the series listed under Homo sapiens [11]. In the series filed under Homo sapiens [6], the result was inactive.

In series [1], `OB(O)c1ccc(O)cc1` came in with a pKa of 10.
